Assay results reported in patent publication US10954232B2, “Pyrazole derivative as ALK5 inhibitor and uses thereof” (HANMI PHARMACEUTICAL CO., LTD., priority 2016, dated 2021).

Molecular target: T1, ALK5 kinase (Homo sapiens, UniProt P36897)
T1 construct: GST; purchased Thermo Fisher Scientific Solutions
T1 sequence (P36897 34-503): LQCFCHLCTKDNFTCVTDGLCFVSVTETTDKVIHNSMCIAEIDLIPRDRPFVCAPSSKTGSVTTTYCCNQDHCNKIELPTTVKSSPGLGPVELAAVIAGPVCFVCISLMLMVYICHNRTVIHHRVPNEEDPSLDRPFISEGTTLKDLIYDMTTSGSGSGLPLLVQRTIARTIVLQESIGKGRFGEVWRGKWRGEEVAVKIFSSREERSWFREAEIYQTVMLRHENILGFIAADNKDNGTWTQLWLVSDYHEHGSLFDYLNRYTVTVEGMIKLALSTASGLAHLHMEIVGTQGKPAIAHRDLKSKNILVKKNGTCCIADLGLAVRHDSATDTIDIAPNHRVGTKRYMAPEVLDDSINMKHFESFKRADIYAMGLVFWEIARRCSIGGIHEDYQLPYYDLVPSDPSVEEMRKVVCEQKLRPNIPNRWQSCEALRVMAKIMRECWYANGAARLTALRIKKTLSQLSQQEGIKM
Assay: Activity inhibition test on ALK5 enzyme (LanthaScreen Eu binding kinase assay)
Conditions: kinase tracer 178, 60 minutes at room temperature
Protocol: For each of the compounds obtained in Examples 1 to 227, inhibitory activity against ALK5 kinase was measured.
For this, a LanthaScreen Eu binding kinase assay method was used, and ALK5 kinase, a kinase buffer, a kinase tracer 178, and a LanthaScreen Eu-GST binding antibody were all purchased from Thermo Fisher Scientific Solutions. Each of the compounds was made into a 10 mM DMSO solution, and diluted by 1/10 to a concentration of 1 μM to 0.0001 μM with an aqueous solution containing 4% DMSO. The test was performed in 384 well plates (well polystyrene low volume round-bottomed plates). First, 5 μL of the diluted compound solution was added, then 5 μL of the kinase/antibody mixture solution was introduced thereto, and 5 μL of the tracer was introduced thereto. Herein, these were added to each well so that the final kinase concentration became 5 nM, the final Eu-GST binding antibody concentration 2 nM, and the kinase tracer 178 concentration 10 nM, and the result was reacted in a stirrer for 60 minutes at room temperature. Then a fluorescence value was measured using a fluorescence meter (molecular device) ([…], 665 nm emission filter). Herein, as for the degree of compound activity to inhibit the kinase reaction, a phosphorylate rate was calculated from 0% to 100% with respect to a control group according to the protocol included in the kit, and a 50% inhibitory concentration (IC50) value was calculated by obtaining the x-axis concentration in the region where 50% activity was inhibited.

Row | SMILES | IC50
1 | Cc1cccc(-n2nc(C(=O)Nc3ccc(F)cc3)cc2-c2ccc3ncsc3c2)n1 [Example 29, 5-(benzo[d]thiazol-6-yl)-N-(4-fluorophenyl)-1-(6-methylpyridin-2-yl)-1H-pyrazole-3-carboxyamide] | 3.9 nM
2 | Cc1cccc(-n2nc(C(=O)Nc3ccc(F)c(F)c3)cc2-c2ccc3ncsc3c2)n1 [Example 30, 5-(benzo[d]thiazol-6-yl)-N-(3,4-difluorophenyl)-1-(6-methylpyridin-2-yl)-1H-pyrazole-3-carboxyamide] | 5.8 nM
3 | Cc1cccc(-n2nc(C(=O)Nc3ccccc3Cl)cc2-c2ccc3ncsc3c2)n1 [Example 31, 5-(benzo[d]thiazol-6-yl)-N-(2-chlorophenyl)-1-(6-methylpyridin-2-yl)-1H-pyrazole-3-carboxyamide] | > 100 nM
4 | Cc1cccc(-n2nc(C(=O)Nc3cccc(Cl)c3)cc2-c2ccc3ncsc3c2)n1 [Example 32, 5-(benzo[d]thiazol-6-yl)-N-(3-chlorophenyl)-1-(6-methylpyridin-2-yl)-1H-pyrazole-3-carboxyamide] | 10 to 100 nM
5 | Cc1cccc(-n2nc(C(=O)Nc3ccc(Cl)cc3)cc2-c2ccc3ncsc3c2)n1 [Example 33, 5-(benzo[d]thiazol-6-yl)-N-(4-chlorophenyl)-1-(6-methylpyridin-2-yl)-1H-pyrazole-3-carboxyamide] | 10 to 100 nM
6 | Cc1cccc(-n2nc(C(=O)Nc3ccc(Br)cc3)cc2-c2ccc3ncsc3c2)n1 [Example 34, 5-(benzo[d]thiazol-6-yl)-N-(4-bromophenyl)-1-(6-methylpyridin-2-yl)-1H-pyrazole-3-carboxyamide] | 10 to 100 nM
7 | CSc1cccc(NC(=O)c2cc(-c3ccc4ncsc4c3)n(-c3cccc(C)n3)n2)c1 [Example 35, 5-(benzo[d]thiazol-6-yl)-1-(6-methylpyridin-2-yl)-N-(3-(methylthio)phenyl)-1H-pyrazole-3-carboxyamide] | 10 to 100 nM
8 | CSc1ccc(NC(=O)c2cc(-c3ccc4ncsc4c3)n(-c3cccc(C)n3)n2)cc1 [Example 36, 5-(benzo[d]thiazol-6-yl)-1-(6-methylpyridin-2-yl)-N-(4-(methylthio)phenyl)-1H-pyrazole-3-carboxyamide] | < 10 nM
9 | Cc1cccc(-n2nc(C(=O)Nc3ccc(SC4CC4)cc3)cc2-c2ccc3ncsc3c2)n1 [Example 37, 5-(benzo[d]thiazol-6-yl)-N-(4-(cyclopropylthio)phenyl)-1-(6-methylpyridin-2-yl)-1H-pyrazole-3-carboxyamide] | 40 nM
10 | Cc1cccc(-n2nc(C(=O)Nc3cccc([S+](C)[O-])c3)cc2-c2ccc3ncsc3c2)n1 (centres unmarked) [Example 38, 5-(benzo[d]thiazol-6-yl)-1-(6-methylpyridin-2-yl)-N-(3-(methylsulfinyl)phenyl)-1H-pyrazole-3-carboxyamide] | 1.8 nM
11 | Cc1cccc(-n2nc(C(=O)Nc3ccc([S+](C)[O-])cc3)cc2-c2ccc3ncsc3c2)n1 (centres unmarked) [Example 39, 5-(benzo[d]thiazol-6-yl)-1-(6-methylpyridin-2-yl)-N-(4-(methylsulfinyl)phenyl)-1H-pyrazole-3-carboxyamide] | 2.4 nM
12 | Cc1cccc(-n2nc(C(=O)Nc3cccc(S(C)(=O)=O)c3)cc2-c2ccc3ncsc3c2)n1 [Example 40, 5-(benzo[d]thiazol-6-yl)-1-(6-methylpyridin-2-yl)-N-(3-(methylsulfonyl)phenyl)-1H-pyrazole-3-carboxyamide] | 3.3 nM
13 | Cc1cccc(-n2nc(C(=O)Nc3ccc(S(C)(=O)=O)cc3)cc2-c2ccc3ncsc3c2)n1 [Example 41, 5-(benzo[d]thiazol-6-yl)-1-(6-methylpyridin-2-yl)-N-(4-(methylsulfonyl)phenyl)-1H-pyrazole-3-carboxyamide] | 5.2 nM
14 | CCCS(=O)(=O)c1ccc(NC(=O)c2cc(-c3ccc4ncsc4c3)n(-c3cccc(C)n3)n2)cc1 [Example 42, 5-(benzo[d]thiazol-6-yl)-1-(6-methylpyridin-2-yl)-N-(4-(propylsulfonyl)phenyl)-1H-pyrazole-3-carboxyamide] | 2.2 nM
15 | Cc1cccc(-n2nc(C(=O)Nc3ccc(S(=O)(=O)C4CC4)cc3)cc2-c2ccc3ncsc3c2)n1 [Example 43, 5-(benzo[d]thiazol-6-yl)-N-(4-(cyclopropylsulfonyl)phenyl)-1-(6-methylpyridin-2-yl)-1H-pyrazole-3-carboxyamide] | 4.4 nM
16 | Cc1cccc(-n2nc(C(=O)Nc3ccc(S(C)(=O)=O)cc3F)cc2-c2ccc3ncsc3c2)n1 [Example 44, 5-(benzo[d]thiazol-6-yl)-N-(2-fluoro-4-(methylsulfonyl)phenyl)-1-(6-methylpyridin-2-yl)-1H-pyrazole-3-carboxyamide] | 13 nM
17 | Cc1cccc(-n2nc(C(=O)Nc3cccc(S(N)(=O)=O)c3)cc2-c2ccc3ncsc3c2)n1 [Example 45, 5-(benzo[d]thiazol-6-yl)-1-(6-methylpyridin-2-yl)-N-(3-sulfamoylphenyl)-1H-pyrazole-3-carboxyamide] | 2.4 nM
18 | Cc1cccc(-n2nc(C(=O)Nc3ccc(S(N)(=O)=O)cc3)cc2-c2ccc3ncsc3c2)n1 [Example 46] | 1.3 nM
19 | CNS(=O)(=O)c1cccc(NC(=O)c2cc(-c3ccc4ncsc4c3)n(-c3cccc(C)n3)n2)c1 [Example 47, 5-(benzo[d]thiazol-6-yl)-1-(6-methylpyridin-2-yl)-N-(3-(N-methylsulfamoyl)phenyl)-1H-pyrazole-3-carboxyamide] | 1.2 nM
20 | CNS(=O)(=O)c1ccc(NC(=O)c2cc(-c3ccc4ncsc4c3)n(-c3cccc(C)n3)n2)cc1 [Example 48, 5-(benzo[d]thiazol-6-yl)-1-(6-methylpyridin-2-yl)-N-(4-(N-methylsulfamoyl)phenyl)-1H-pyrazole-3-carboxyamide] | 4.1 nM
21 | Cc1cccc(-n2nc(C(=O)Nc3cccc(S(=O)(=O)NC4CC4)c3)cc2-c2ccc3ncsc3c2)n1 [Example 49, 5-(benzo[d]thiazol-6-yl)-N-(3-(N-cyclopropylsulfamoyl)phenyl)-1-(6-methylpyridin-2-yl)-1H-pyrazole-3-carboxyamide] | 5.6 nM
22 | Cc1cccc(-n2nc(C(=O)Nc3ccc(S(=O)(=O)NC4CC4)cc3)cc2-c2ccc3ncsc3c2)n1 [Example 50, 5-(benzo[d]thiazol-6-yl)-N-(4-(N-cyclopropylsulfamoyl)phenyl)-1-(6-methylpyridin-2-yl)-1H-pyrazole-3-carboxyamide] | 6.6 nM
23 | Cc1cccc(-n2nc(C(=O)Nc3cccc(S(=O)(=O)N(C)C)c3)cc2-c2ccc3ncsc3c2)n1 [Example 51, 5-(benzo[d]thiazol-6-yl)-N-(3-(N,N-dimethylsulfamoyl)phenyl)-1-(6-methylpyridin-2-yl)-1H-pyrazole-3-carboxyamide] | 6.5 nM
24 | Cc1cccc(-n2nc(C(=O)Nc3ccc(S(=O)(=O)N(C)C)cc3)cc2-c2ccc3ncsc3c2)n1 [Example 52, 5-(benzo[d]thiazol-6-yl)-N-(4-(N,N-dimethylsulfamoyl)phenyl)-1-(6-methylpyridin-2-yl)-1H-pyrazole-3-carboxyamide] | 2.5 nM
25 | Cc1cccc(-n2nc(C(=O)Nc3cccc(NS(C)(=O)=O)c3)cc2-c2ccc3ncsc3c2)n1 [Example 53, 5-(benzo[d]thiazol-6-yl)-1-(6-methylpyridin-2-yl)-N-(3-(methylsulfonamido)phenyl)-1H-pyrazole-3-carboxyamide] | 2.4 nM
26 | Cc1cccc(-n2nc(C(=O)Nc3cccc(NS(=O)(=O)C4CC4)c3)cc2-c2ccc3ncsc3c2)n1 [Example 54, 5-(benzo[d]thiazol-6-yl)-N-(3-(cyclopropanesulfonamido)phenyl)-1-(6-methylpyridin-2-yl)-1H-pyrazole-3-carboxyamide] | 2 nM
27 | Cc1cccc(-n2nc(C(=O)Nc3ccc(NS(=O)(=O)C4CC4)cc3)cc2-c2ccc3ncsc3c2)n1 [Example 55, 5-(benzo[d]thiazol-6-yl)-N-(4-(cyclopropanesulfonamido)phenyl)-1-(6-methylpyridin-2-yl)-1H-pyrazole-3-carboxyamide] | 4.2 nM
28 | Cc1cccc(-n2nc(C(=O)Nc3ccc(S(=O)(=O)O)cc3)cc2-c2ccc3ncsc3c2)n1 [Example 56, 4-(5-(benzo[d]thiazol-6-yl)-1-(6-methylpyridin-2-yl)-1H-pyrazole-3-carboxyamido)benzenesulfonic acid] | 2.4 nM
29 | Cc1cccc(-n2nc(C(=O)Nc3ccc(S(=O)(=O)C(F)(F)F)cc3)cc2-c2ccc3ncsc3c2)n1 [Example 57, 5-(benzo[d]thiazol-6-yl)-1-(6-methylpyridin-2-yl)-N-(4-((trifluoromethyl)sulfonyl)phenyl)-1H-pyrazole-3-carboxyamide] | 45 nM
